The values below come from patent publication US20130324556A1, “Protease Activated Receptor 2 (PAR2) Antagonists” (priority 2011, published 2013).

Counter-ions that a name gives are not always drawn.

A word on the IC50: it is the concentration at which inhibition is half-maximal.

This assay deals with T1, human PAR2 receptor (Homo sapiens, UniProt P55085).
T1 construct: expressed in transfected cells; host or cells: 1321N1 cells
T1 sequence (P55085 26-397): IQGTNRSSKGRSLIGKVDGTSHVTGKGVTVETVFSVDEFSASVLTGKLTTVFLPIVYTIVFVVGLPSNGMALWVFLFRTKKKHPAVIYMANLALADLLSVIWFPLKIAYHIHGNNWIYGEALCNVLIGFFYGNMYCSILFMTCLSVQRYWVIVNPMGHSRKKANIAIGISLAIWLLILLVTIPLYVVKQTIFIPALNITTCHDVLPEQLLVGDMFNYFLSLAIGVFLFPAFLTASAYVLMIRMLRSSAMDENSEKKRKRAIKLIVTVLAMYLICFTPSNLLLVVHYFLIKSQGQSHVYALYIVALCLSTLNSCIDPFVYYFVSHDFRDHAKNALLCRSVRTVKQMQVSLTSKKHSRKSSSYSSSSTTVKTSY
Briefly: PAR2 antagonist activity, calcium flux FLIPR assay (trypsin challenge). As to conditions: 1321N1 cells transfected with the human PAR2 receptor; trypsin (EC50 concentration) challenge; calcium flux FLIPR; read-out: PAR2 IC50. In kind it is cell-based. How it is done: The PAR2 receptor couples through the Gq signaling pathway and results in activation of calcium mobilization. The functional activity of test compounds was routinely tested by measuring the ability of compounds to antagonize PAR2 (trypsin challenge) activity in a dose dependent manner, in 1321N1 cells transfected with the human PAR2 receptor, using a calcium flux Fluorescent Imaging Plate Reader FLIPR assay.
Briefly, test compounds were dissolved in DMSO to a concentration of 20 mM and stored in matrix screenmate racks. […] The compounds were then transferred to 384-well assay plates ready for use. […] The assay buffer used was HBSS buffer supplemented with 20 mM HEPES and 0.1% BSA (protease free), pH7.4. The loading/wash buffers were the same as the assay buffer.
Sub-cultivations were performed every 2-3 d. […] After washing, the cells were loaded with Fluo-4 AM dye (Molecular probes) at 2 μM containing 0.48 μg/mL pluronic acid for 60 min at 37° C. under 5% CO2.
A combined agonist/antagonist protocol was used to measure changes in intracellular calcium concentration. Compound (antagonist) was added to the cell plate using a Fluorometric Imaging Plate Reader (FLIPR) (Molecular Devices, Sunnyvale, Calif., USA). Basal fluorescence was recorded every second for 10 seconds prior to compound addition (10 μl) and fluorescence recorded every second for 1 min then every 6 seconds for a further 1 min. Trypsin (EC50 concentration) was then added using the FLIPR and fluorescence recorded as described above. Curve-fitting and parameter estimation were carried out using GraphPad Prism 4.0 (GraphPad Software Inc., San Diego, Calif.).
On the technique in general: Calcium assays in cells follow changes in intracellular calcium, usually with a dye or a luminescent sensor.
As for `O=C(NCc1ccc2nc[nH]c2c1)N1CCC(Cc2ccccc2)C1` (stereo not drawn) [Example 60, 2,2,2-Trifluoroacetic acid; N-(1H-1,3-benzodiazol-5-ylmethyl)-3-benzylpyrrolidine-1-carboxamide], the half-inhibitory concentration (IC50) was in the range of 5 to 20 µM.
Next, `O=C(NCc1ccc2nn[nH]c2c1)N1CCC(Cc2ccccc2)CC1` [Example 61, N-(1H-1,2,3-Benzotriazol-6-ylmethyl)-4-benzylpiperidine-1-carboxamide]: 50 to 100 µM; `Nc1nc2ccc(CNC(=O)N3CCC(Cc4ccccc4)CC3)cc2[nH]1` [Example 62, N-[(2-Amino-1H-1,3-benzodiazol-6-yl)methyl]-4-benzylpiperidine-1-carboxamide]: 5 to 20 µM.
Next, `N=C(N)Nc1ccc(CNC(=O)N2CCC(Cc3ccccc3)CC2)cc1` [Example 63, 2,2,2-Trifluoroacetic acid; 4-benzyl-N-[(4-carbamimidamidophenyl)methyl]piperidine-1-carboxamide]: 5 to 20 µM.
Regarding `O=C(NCc1ccc2c(c1)CNC2)N1CCC(Cc2ccccc2)CC1` [Example 64, 4-Benzyl-N-(2,3-dihydro-1H-isoindol-5-ylmeth-yl)piperidine-1-carboxamide], the concentration for half-maximal inhibition (IC50) fell in the range of 5 to 20 µM.
The figure for `O=C(NCc1ccc2c(c1)CNC2)N1CCC(Cc2ccncc2)CC1` [Example 65, N-(2,3-Dihydro-1H-isoindol-5-ylmethyl)-4-(pyridin-4-ylmethyl)piperidine-1-carboxamide dihydrochloride] is 50 to 100 µM; for `O=C(NCc1ccc2c(c1)CNC2)N1CCC(Oc2ccc(F)cc2)CC1` [Example 66, N-(2,3-Dihydro-1H-isoindol-5-ylmethyl)-4-(4-fluorophenoxy) piperidine-1-carboxamide hydrochloride] it is 20 to 50 µM.
With `NCc1cccc(CNC(=O)N2CCC(Cc3ccccc3)CC2)c1` [Example 67, N-{[3-(Aminometh-yl)phen-yl]methyl}-4-benzylpiperidine-1-carboxamide], the IC50 was 50 to 100 µM.
The figure for `NCCCCCNC(=O)N1CCC(Cc2ccccc2)CC1` [Example 68, N-(5-Aminopentyl)-4-benzylpiperidine-1-carboxamide] is 20 to 50 µM.
